According to PubChem BioAssay (NCI):
“And” between values parts separate entries of the source, which are not always exact repeats. Equal values may be shown once.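 All cell lines were grown in 96-well plates and treated with compound for 48 hours. GI50 = concentration required for 50% inhibition of growth. Definition used: TGI = concentration required for complete inhibition of growth.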

Experiments:
Assay in all cases: inhibition of tumour cell growth, NCI panel, 48 h
SW-620 colon = test system: SW-620 colon
PC-3 prostate = test system: PC-3 prostate
CAKI-1 renal = test system: CAKI-1 renal
HS 578T breast = test system: HS 578T breast
COLO 205 colon = test system: COLO 205 colon
NCI-H460 lung = test system: NCI-H460 lung
T-47D breast = test system: T-47D breast
HOP-62 NSCLC = test system: HOP-62 NSCLC
MALME-3M melanoma = test system: MALME-3M melanoma
K-562 leukemia = test system: K-562 leukemia

| Structure (SMILES) | GI50 (SW-620 colon) | TGI (SW-620 colon) [µM] | GI50 (PC-3 prostate) | TGI (PC-3 prostate) [µM] | GI50 (CAKI-1 renal) [µM] | TGI (CAKI-1 renal) [µM] | GI50 (HS 578T breast) [µM] | TGI (HS 578T breast) [µM] | GI50 (COLO 205 colon) [µM] | TGI (COLO 205 colon) [µM] | GI50 (NCI-H460 lung) | TGI (NCI-H460 lung) [µM] | GI50 (T-47D breast) [µM] | TGI (T-47D breast) [µM] | GI50 (HOP-62 NSCLC) | TGI (HOP-62 NSCLC) [µM] | GI50 (MALME-3M melanoma) | TGI (MALME-3M melanoma) | GI50 (K-562 leukemia) | TGI (K-562 leukemia) [µM] |
| --- | --- | --- | --- | --- | --- | --- | --- | --- | --- | --- | --- | --- | --- | --- | --- | --- | --- | --- | --- | --- |
| CC1=C(C#N)C23C(=O)N(c4ccccc4)C(=O)C2=C(O)C=CC3(O)N1Cc1ccc(Cl)cc1Cl (stereo unspecified) | 2.07 µM | 4.29 | 4.68 µM | 17.1 | 2.94 | 12.1 | 3.13 | 11.6 | 4.11 | 14.4 | 3.09 µM | 12.3 | 2.93 | 14.6 | 4.31 µM | 15.7 | 3.14 µM | 9.95 µM | 3.76 µM | 9.26 |
| Nc1ncc(-c2ccc3ncnc(Nc4cccc(Cl)c4)c3c2)cn1 |  |  | 1.48 µM | > 100 | 0.0346 |  |  |  |  |  |  |  |  |  | 0.388 µM and 2.98 µM | > 100 |  |  |  |  |
| COc1cc(-c2nn(-c3cccc(NC(=O)Nc4ccc(Cl)c(C(F)(F)F)c4)c3)cc2-c2ccncc2)ccc1Cl | 1.29 µM | 29.9 | 0.69 µM | 2.45 | 0.992 | 4.72 | 1.32 | 18.3 | 0.711 | 1.54 | 1.11 µM | 4.79 | 1.23 | > 32.5 | 1.31 µM | 6.49 | 0.838 µM | 2.35 µM | 1.21 µM | > 32.5 |
| CC(=O)OC12C(C)=C(C)C(=O)N1c1ccccc1N2C(C)=O (stereo unspecified) |  | > 100 |  |  |  | > 100 |  |  |  | > 100 |  | > 100 |  |  |  | > 100 |  |  |  | > 100 |
| CC(=O)OCc1c(O)c2c([nH]c1=O)CCc1ccccc1-2 |  | 111 |  |  |  | 130 |  |  |  | 112 |  | 283 |  |  |  | > 350 |  | > 35 µM |  | > 350 |
| Nc1nc(=O)n(C2CCC(CO)O2)cc1F (stereo unspecified) |  | > 100 |  |  |  | > 100 |  |  |  | > 100 |  | > 100 |  |  |  | > 100 |  | > 100 µM |  | > 100 |
| O=C1CCCCCCC2=C1C(Sc1ccccc1)CC2 (stereo unspecified) |  | > 100 |  |  |  |  |  |  |  | > 100 |  | > 100 |  |  |  | > 100 |  | > 100 µM |  | > 100 |
| COc1ccc(NC(=O)Oc2ccc3c(C)cc(=O)oc3c2)c(OC)c1 (tested in a mixture with another compound) |  | > 100 |  | > 100 |  | > 100 |  | > 100 |  | > 100 |  | > 100 |  | > 100 |  | > 100 |  | > 100 µM |  |  |
| Cc1ccc(S(=O)(=O)ON2C(=O)c3cccc4cc([N+](=O)[O-])cc(c34)C2=O)cc1 |  | > 100 |  | > 100 |  | > 100 |  | > 100 |  | > 100 |  | > 100 |  | > 100 |  | > 100 |  | > 100 µM |  |  |
| O=C(O)/C=C/c1ccc(Oc2ccccc2C(=O)O)o1 |  | > 10 |  | > 10 |  | > 10 |  | > 10 |  | > 10 |  |  |  | > 10 |  | > 10 |  | > 10 µM |  | > 10 |
| COC(=O)/C=C1/SC(=Nc2cccc(Cl)c2)N(CCc2c[nH]c3ccc(O)cc23)C1=O |  |  | 1.74 µM | 3.87 | 1.83 | 3.67 | 2.68 | 8.99 | 2.05 | 4.04 | 2.04 µM | 4.1 | 2.03 | 7.15 | 1.9 µM | 3.93 |  |  |  |  |
| CC(Oc1ccc2c(-c3ccc(Cl)cc3)cc(=O)oc2c1)C(=O)O (stereo unspecified) |  | > 100 |  |  |  | > 100 |  |  |  | > 100 |  | > 100 |  |  |  | > 100 |  | > 100 µM |  | > 100 |
| CC(C)(C)OC(=O)C1C(=O)NC(=O)CC1CC(OCc1ccccc1)C(OCc1ccccc1)C(COCc1ccccc1)OCc1ccccc1 (stereo unspecified) | 74.5 µM and 23.4 µM | > 100 | 54.7 µM and 8.16 µM | > 100 |  |  |  | > 100 |  |  | 32.7 µM and 12.1 µM | > 100 |  | 81 | > 100 µM and 34 µM | > 100 | 25.4 µM and 11.4 µM | > 100 µM and 45.4 µM | 41.5 µM and 11 µM | > 100 |
| CCOC(=O)C(=Cc1ccc(C#N)cc1)C(=O)OCC | 2.1 µM | 4.72 | 2.28 µM | 4.9 | 2.12 | 5.37 | 4.19 | 37.9 | 1.87 | 3.83 | 4.2 µM | 16 | 2.15 | 7.96 | 2.73 µM | 9.81 |  |  | 3.44 µM | > 100 |
| COc1ccc(N2C(=O)C3CC(c4ccc(Br)cc4)c4c([nH]c5ccccc45)C3C2=O)cc1 (stereo unspecified) |  | 18.5 |  |  |  | 29.6 |  |  |  | 34.8 |  | 17.2 |  |  |  | 11.5 |  | 36.7 µM |  | 27.8 |
| CCC[CH2][Sn](=[O])[CH2]CCC | > 50 µM | > 50 |  |  | > 35.1 | > 50 |  |  | > 50 | > 50 | > 50 µM | > 50 |  |  | > 50 µM | > 50 | > 50 µM | > 50 µM | > 50 µM | > 50 |
| O=C1c2ccccc2C(=O)N1CCc1ncc(-c2ccccc2)[nH]1 |  | > 100 |  | > 100 |  | > 100 |  | > 100 |  | > 100 |  | > 100 |  |  |  | > 100 |  | > 100 µM |  | > 100 |
| CCCCN(CC)C(=O)C(=O)Cc1nc2ccc(C(=O)c3ccccc3)cc2[nH]c1=O |  | > 100 |  |  |  | > 100 |  |  |  | > 100 |  | > 100 |  |  |  | > 100 |  |  |  | > 31.6 |
| CC(C)(C)C1=CC(=N/N=c2\scc(-c3ccccc3)n2-c2ccccc2)C=C(C(C)(C)C)C1=O |  | > 100 |  |  |  | > 100 |  |  |  | > 100 |  | > 100 |  |  |  | > 100 |  | > 100 µM |  | > 100 |
| O=S1(=O)c2ccccc2N(O)C2=NCCN21 |  | > 100 |  |  |  | > 100 |  |  |  | > 100 |  | > 100 |  |  |  | > 100 |  | > 100 µM |  | > 100 |
